Data reported in ChEMBL document CHEMBL5465560, “Selectivity Literature for EUbOPEN Chemogenomic Library” (2024).

What was measured:
[1] = target: T1, Histone-arginine methyltransferase CARM1 (Homo sapiens) (UniProt Q86X55); experiment: Selectivity interaction (Methyltransferase screen (radiometric assays, panel of 8 PRMTs, 21 protein lysine methyltransferases, 3 DNA methyltransferases, and one RNA methyltransferase)) EUB0000272b CARM1
T1 sequence (whole entry): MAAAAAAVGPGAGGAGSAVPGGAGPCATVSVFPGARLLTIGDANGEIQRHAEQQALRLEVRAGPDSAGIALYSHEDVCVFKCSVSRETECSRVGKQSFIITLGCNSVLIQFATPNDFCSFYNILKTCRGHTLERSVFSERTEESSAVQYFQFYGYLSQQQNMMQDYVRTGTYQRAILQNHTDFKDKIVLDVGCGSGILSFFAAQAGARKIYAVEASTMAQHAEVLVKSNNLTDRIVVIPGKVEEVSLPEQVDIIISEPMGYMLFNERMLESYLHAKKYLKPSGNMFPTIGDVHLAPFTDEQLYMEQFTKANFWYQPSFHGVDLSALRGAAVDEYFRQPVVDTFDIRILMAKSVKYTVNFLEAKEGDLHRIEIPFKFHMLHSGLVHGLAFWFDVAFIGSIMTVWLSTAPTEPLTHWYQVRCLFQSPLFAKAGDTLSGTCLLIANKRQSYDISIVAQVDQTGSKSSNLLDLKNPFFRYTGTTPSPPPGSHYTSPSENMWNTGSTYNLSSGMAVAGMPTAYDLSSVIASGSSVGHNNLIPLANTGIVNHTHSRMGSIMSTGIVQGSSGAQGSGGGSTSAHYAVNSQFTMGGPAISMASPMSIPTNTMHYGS

[2] = target: Epithelial discoidin domain-containing receptor 1 (Homo sapiens) (UniProt Q08345); experiment: Selectivity interaction (Ambit KINOMEscan and KiNATiv profiling in Jurkat cells) EUB0000090b DDR1; type: cell-based; conditions: at 1 µM
[3] = target: T2, cAMP-dependent protein kinase catalytic subunit PRKX (Homo sapiens) (UniProt P51817); experiment: Selectivity interaction (Ambit KINOMEscan and KiNATiv profiling in Jurkat cells) EUB0000090b PRKX; type: cell-based; conditions: at 1 µM
T2 sequence (whole entry): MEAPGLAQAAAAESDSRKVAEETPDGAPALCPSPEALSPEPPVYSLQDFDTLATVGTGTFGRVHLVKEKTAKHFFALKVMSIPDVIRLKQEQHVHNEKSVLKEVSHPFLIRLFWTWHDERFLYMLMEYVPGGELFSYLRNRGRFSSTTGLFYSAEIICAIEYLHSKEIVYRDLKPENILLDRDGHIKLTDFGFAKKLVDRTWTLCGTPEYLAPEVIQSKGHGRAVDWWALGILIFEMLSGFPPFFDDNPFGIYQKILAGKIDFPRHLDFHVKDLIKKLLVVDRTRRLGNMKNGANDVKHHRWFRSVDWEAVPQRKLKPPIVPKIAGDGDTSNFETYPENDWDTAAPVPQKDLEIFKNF

[4] = target: Angiopoietin-1 receptor (Homo sapiens) (UniProt Q02763); experiment: Selectivity interaction (Ambit KINOMEscan and KiNATiv profiling in Jurkat cells) EUB0000090b TEK; type: cell-based; conditions: at 1 µM
[5] = target: T3, Inhibitor of nuclear factor kappa-B kinase subunit epsilon (Homo sapiens) (UniProt Q14164); experiment: Selectivity interaction (Ambit KINOMEscan and KiNATiv profiling in Jurkat cells) EUB0000090b IKBKE; type: cell-based; conditions: at 1 µM
T3 sequence (whole entry): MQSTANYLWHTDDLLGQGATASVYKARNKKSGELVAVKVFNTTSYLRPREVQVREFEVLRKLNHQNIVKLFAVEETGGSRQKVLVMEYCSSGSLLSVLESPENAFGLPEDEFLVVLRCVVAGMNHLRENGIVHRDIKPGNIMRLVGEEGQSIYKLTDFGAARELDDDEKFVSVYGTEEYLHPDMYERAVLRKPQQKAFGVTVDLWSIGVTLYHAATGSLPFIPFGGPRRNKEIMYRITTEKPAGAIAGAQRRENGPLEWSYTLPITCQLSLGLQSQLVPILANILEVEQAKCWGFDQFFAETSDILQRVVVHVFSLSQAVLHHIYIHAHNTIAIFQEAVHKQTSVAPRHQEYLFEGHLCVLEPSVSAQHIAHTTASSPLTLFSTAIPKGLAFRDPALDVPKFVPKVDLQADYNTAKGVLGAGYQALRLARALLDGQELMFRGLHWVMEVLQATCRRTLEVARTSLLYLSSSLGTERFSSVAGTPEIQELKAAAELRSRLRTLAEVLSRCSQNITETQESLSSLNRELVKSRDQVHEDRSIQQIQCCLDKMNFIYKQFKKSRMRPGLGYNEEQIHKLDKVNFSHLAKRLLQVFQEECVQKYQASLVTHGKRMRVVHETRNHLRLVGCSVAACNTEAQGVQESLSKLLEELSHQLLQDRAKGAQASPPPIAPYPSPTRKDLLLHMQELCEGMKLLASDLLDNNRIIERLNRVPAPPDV

[6] = target: Tyrosine-protein kinase Fes/Fps (Homo sapiens) (UniProt P07332); experiment: Selectivity interaction (KinomeScan (DiscoverX)) EUB0000655a FES; conditions: at 10 µM
[7] = test system: eIF-2-alpha kinase GCN2 (Homo sapiens), Q9P2K8 [S808G]; experiment: Selectivity interaction (KinomeScan (DiscoverX)) EUB0000607a EIF2AK4; conditions: at 10 µM
[8] = test system: Proto-oncogene tyrosine-protein kinase receptor Ret (Homo sapiens), P07949 [V804L]; experiment: (§1) Selectivity interaction (KinomeScan (DiscoverX)) EUB0001619a RET; conditions: at 1 µM
[9] = test system: Proto-oncogene tyrosine-protein kinase receptor Ret (Homo sapiens), P07949 [V804M]; experiment: as §1; conditions: at 1 µM
[10] = target: Proto-oncogene tyrosine-protein kinase receptor Ret (Homo sapiens, UniProt P07949); experiment: as §1; conditions: at 1 µM
[11] = test system: Proto-oncogene tyrosine-protein kinase receptor Ret (Homo sapiens), P07949 [M918T]; experiment: as §1; conditions: at 1 µM
[12] = target: Citron Rho-interacting kinase (Homo sapiens) (UniProt O14578); experiment: Selectivity interaction (KinomeScan (DiscoverX)) EUB0000595a CIT; conditions: at 10 µM
[13] = target: Protein arginine N-methyltransferase 3 (Homo sapiens, UniProt O60678); conditions: at 1 µM
[14] = target: MAP kinase-activated protein kinase 2 (Homo sapiens, UniProt P49137)
[15] = target: Serine/threonine-protein kinase SBK1 (Homo sapiens) (UniProt Q52WX2); experiment: Selectivity interaction (KinomeScan (DiscoverX)) EUB0000229b SBK1; conditions: at 10 µM
[16] = target: PH-interacting protein (Homo sapiens) (UniProt Q8WWQ0); experiment: Selectivity interaction (Human bromodomain panel (DSF assay)) EUB0000233b PHIP
[17] = target: Serine/threonine-protein kinase Nek4 (Homo sapiens) (UniProt P51957); experiment: Selectivity interaction (KinomeScan (DiscoverX)) EUB0000695a NEK4; conditions: at 100 nM
[18] = target: Tyrosine-protein kinase JAK2 (Homo sapiens, UniProt O60674); experiment: Selectivity interaction (KinomeScan (DiscoverX)) EUB0000695a JAK2; conditions: at 100 nM
Sequence of Tyrosine-protein kinase JAK2 (O60674 whole entry): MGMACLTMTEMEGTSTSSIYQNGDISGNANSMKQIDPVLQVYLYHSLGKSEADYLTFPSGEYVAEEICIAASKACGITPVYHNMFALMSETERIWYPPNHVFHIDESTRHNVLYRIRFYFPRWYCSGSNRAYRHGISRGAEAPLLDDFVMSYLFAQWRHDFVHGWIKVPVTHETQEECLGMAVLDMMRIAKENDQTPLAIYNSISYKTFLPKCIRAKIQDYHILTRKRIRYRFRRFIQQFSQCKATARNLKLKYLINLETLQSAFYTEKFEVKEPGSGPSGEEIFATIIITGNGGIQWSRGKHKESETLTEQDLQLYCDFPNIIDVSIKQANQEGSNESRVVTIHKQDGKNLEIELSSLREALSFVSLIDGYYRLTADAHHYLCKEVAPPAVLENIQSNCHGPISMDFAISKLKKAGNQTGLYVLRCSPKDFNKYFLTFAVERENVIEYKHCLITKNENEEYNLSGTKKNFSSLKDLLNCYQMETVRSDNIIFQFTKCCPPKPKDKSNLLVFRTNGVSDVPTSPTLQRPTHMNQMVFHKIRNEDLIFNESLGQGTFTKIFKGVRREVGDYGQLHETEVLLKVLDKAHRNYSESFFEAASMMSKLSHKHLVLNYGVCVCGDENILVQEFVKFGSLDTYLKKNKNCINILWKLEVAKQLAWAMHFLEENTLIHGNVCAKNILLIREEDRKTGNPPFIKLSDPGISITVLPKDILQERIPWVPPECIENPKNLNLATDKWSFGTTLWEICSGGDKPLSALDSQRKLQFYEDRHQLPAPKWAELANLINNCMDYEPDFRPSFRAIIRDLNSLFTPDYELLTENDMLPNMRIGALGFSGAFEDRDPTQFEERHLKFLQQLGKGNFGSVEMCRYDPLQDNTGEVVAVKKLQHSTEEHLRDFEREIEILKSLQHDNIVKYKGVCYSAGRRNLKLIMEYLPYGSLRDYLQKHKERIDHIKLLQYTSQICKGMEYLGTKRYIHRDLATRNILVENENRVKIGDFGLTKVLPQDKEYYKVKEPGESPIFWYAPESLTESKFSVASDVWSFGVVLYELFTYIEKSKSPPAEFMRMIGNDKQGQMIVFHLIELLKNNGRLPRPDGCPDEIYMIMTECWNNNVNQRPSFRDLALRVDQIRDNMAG

Sequence of Epithelial discoidin domain-containing receptor 1 (Homo sapiens) (Q08345 whole entry, the tested form may be a part): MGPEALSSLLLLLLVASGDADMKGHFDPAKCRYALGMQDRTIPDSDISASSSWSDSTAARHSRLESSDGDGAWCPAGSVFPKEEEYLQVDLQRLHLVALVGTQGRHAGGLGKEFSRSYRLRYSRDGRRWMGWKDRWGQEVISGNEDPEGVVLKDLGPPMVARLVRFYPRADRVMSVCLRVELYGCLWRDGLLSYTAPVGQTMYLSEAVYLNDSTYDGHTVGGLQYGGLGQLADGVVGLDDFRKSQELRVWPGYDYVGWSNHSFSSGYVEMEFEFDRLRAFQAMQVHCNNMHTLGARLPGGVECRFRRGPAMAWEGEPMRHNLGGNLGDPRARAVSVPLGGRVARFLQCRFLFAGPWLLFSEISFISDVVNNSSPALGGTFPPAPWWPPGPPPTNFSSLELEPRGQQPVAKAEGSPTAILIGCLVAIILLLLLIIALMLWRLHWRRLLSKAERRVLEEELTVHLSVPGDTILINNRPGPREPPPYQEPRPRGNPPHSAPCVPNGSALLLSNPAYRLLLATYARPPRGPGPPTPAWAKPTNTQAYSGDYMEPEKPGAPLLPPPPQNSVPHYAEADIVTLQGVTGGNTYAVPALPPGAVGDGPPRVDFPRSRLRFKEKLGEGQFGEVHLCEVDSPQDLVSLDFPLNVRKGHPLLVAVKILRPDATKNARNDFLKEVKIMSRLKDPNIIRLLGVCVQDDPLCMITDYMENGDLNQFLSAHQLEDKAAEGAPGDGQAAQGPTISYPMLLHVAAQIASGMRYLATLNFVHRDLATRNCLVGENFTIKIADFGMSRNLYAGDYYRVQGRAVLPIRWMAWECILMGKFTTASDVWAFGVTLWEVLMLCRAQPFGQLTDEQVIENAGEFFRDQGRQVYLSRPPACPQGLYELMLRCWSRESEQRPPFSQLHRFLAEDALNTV
Sequence of Protein arginine N-methyltransferase 3 (O60678 2-531 limits assumed): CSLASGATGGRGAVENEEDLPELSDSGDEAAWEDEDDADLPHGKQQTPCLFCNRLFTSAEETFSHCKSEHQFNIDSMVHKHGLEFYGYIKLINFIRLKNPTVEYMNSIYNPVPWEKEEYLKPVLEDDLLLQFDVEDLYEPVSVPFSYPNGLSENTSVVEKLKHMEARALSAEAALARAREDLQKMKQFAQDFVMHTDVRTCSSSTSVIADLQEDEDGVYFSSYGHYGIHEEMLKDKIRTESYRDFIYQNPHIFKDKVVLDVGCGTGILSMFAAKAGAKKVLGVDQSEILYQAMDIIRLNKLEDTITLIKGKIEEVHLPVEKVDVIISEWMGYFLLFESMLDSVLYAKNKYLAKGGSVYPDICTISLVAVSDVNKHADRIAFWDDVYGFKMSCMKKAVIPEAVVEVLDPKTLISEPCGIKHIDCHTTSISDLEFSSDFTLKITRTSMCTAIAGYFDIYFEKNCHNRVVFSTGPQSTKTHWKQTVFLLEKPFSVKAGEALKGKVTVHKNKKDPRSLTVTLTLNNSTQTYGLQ
Sequence of Proto-oncogene tyrosine-protein kinase receptor Ret (P07949 whole entry): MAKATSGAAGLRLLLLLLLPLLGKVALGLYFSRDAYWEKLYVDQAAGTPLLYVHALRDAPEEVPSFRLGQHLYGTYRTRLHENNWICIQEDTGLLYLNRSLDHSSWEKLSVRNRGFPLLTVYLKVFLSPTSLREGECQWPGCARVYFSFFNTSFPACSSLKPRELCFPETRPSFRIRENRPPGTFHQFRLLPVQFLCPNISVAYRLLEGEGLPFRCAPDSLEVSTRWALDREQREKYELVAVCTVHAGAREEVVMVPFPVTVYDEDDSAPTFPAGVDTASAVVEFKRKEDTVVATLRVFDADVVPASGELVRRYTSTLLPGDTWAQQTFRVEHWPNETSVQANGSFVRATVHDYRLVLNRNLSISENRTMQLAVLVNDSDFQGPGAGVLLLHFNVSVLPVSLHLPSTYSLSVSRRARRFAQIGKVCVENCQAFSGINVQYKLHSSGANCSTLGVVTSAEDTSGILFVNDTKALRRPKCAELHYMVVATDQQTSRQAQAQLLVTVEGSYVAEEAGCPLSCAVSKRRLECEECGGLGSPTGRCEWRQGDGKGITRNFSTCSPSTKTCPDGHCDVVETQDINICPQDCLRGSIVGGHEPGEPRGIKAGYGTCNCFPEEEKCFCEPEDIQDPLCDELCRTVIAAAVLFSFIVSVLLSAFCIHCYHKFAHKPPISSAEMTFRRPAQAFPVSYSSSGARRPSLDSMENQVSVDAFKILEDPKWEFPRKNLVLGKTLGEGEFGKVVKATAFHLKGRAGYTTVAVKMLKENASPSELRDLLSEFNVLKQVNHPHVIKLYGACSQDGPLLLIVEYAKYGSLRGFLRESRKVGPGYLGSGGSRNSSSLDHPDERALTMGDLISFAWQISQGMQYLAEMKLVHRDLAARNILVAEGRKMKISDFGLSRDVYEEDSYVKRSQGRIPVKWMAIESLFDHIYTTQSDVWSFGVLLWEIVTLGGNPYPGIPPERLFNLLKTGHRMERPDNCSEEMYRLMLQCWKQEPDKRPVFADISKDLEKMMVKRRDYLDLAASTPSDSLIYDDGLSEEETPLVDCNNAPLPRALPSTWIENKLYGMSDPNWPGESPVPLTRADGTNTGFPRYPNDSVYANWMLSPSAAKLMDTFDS
Sequence of Proto-oncogene tyrosine-protein kinase receptor Ret (Homo sapiens), P07949 [V804M] (P07949 whole entry V804M): as the sequence (P07949 whole entry) above, with V804M counted along it

Cc1cc(C)cc([C@H]2c3cc(C)ccc3NC(=O)CN2C(=O)c2ccc(Br)s2)c1
% of activity ([1]; at 1 µM): 102% | % of activity ([1]; at 10 µM): 96.7%

CN(C)C/C=C/C(=O)Nc1ccc(C(=O)N2CCCC(Nc3ncc(Cl)c(-c4c[nH]c5ccccc45)n3)C2)cc1 (centres undefined)
% of control [2]: 93% | % of control [3]: 89% | % of control [4]: 92% | % of control [5]: 100%

CN(C)CCOc1ccc(-c2nc(-c3ccncc3)c(-c3ccc4c(c3)CC/C4=N\O)[nH]2)cc1
% of control [6]: 100%

CNC(=O)Nc1ccc(-c2nc(N3CC4CCC(C3)O4)c3cnn(C4CCC5(CC4)OCCO5)c3n2)cc1
% of control [7]: 83%

N#Cc1cccc(-c2c[nH]c3ncnc(N4CCOCC4)c23)c1
% of control [8]: 95% | % of control [9]: 58% | % of control [10]: 78% | % of control [11]: 70%

COCC(=O)NC/C=C/c1ccc2ncnc(Nc3ccc(Oc4ccc(C)nc4)c(C)c3)c2c1 [CP-724714]
% of control [12]: 76%

CNCCN1CCC(c2cc(CN(C)C(=O)c3cccc(Oc4ccccc4)c3)ccn2)CC1
% activity [13]: > 90%

CCc1cccc(CC)c1NC(=O)c1nn(C)c2c1CCc1cnc(Nc3ccc(C(=O)NC4CCN(C)CC4)cc3OC(F)(F)F)nc1-2
IC50 [14]: > 10 µM

COc1cc(N(C)c2ccnc3ccc(C(F)(F)F)cc23)cc(OC)c1OC
% binding [15]: 92%

CN(C)CCCOc1ccc(-c2cc(NCCCn3cccn3)nc(S(C)(=O)=O)n2)cc1
dTM [16]: < 2 K

Cc1cc(F)c(C(=O)Nc2cccc(-c3nncn3C(C)C)n2)cc1-n1cnc(C2CC2)c1
% of control [17]: 100% | % of control [18]: 85%
